The text below walks through data of ChEMBL document CHEMBL1201862, “PubChem BioAssay data set” (2004).

Holding throughout (assay): NCI-60 cell line screen, 48 h
The test system of experiment [1] is ACHN.
Experiment [2] has as its system BT-549.
Experiment [3] deals with DLD-1.
Experiment [4] relates to EKVX.
Experiment [5] has as its system HCT-116.
The test system of experiment [6] is HCT-15.
Experiment [7] concerns HOP-62.
Experiment [8] deals with IGROV-1.
Experiment [9] has as its system KM12.
Experiment [10] deals with MCF7.
In experiment [11] the test system is MDA-MB-435.
Experiment [12] concerns NCI-H226.
In experiment [13] the test system is NCI-H460.
Experiment [14] relates to NCI-H522.
Experiment [15] has as its system OVCAR-8.
Experiment [16] concerns SF-295.
The test system of experiment [17] is SK-MEL-28.
Experiment [18] concerns SK-MEL-2.
For experiment [19], the system named is SK-MEL-5.
In experiment [20] the test system is SN12C.

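Exposure lasted 48 hours, with cells grown in 96-well plates and compounds tested at five concentrations. Here, GI50 denotes the concentration required for 50% inhibition of growth.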 Calls of active or inactive are those of the source. Cut-off read from the data, not from the text of the source: active = GI50 up to about 1.1 µM and inactive = higher. Where only a bound is given, the exact number is not on record here.

For the compound `C/C(=N\N)C(CN(C)C)C(c1ccccc1)c1c(O)c2ccccc2oc1=O` (configuration not stated), the GI50 in experiment [1] was 99.5 µM (inactive); in experiment [2] it was > 100 µM (inactive); in experiment [3], > 100 µM (inactive); in experiment [4], > 70.8 µM (inactive); in experiment [5], > 80 µM (inactive); in experiment [6] it was > 100 µM. The GI50 in experiment [7], in experiment [8], in experiment [9], in [10], in experiment [11] and in [12] was > 100 µM (inactive) each time. For the same compound, the GI50 in experiment [13] was > 100 µM (inactive); in [14] it was > 94.4 µM (inactive); in experiment [15] it was > 100 µM (inactive); in [16], > 86.3 µM (inactive); in experiment [17] it was > 100 µM (inactive); in [18], > 100 µM (inactive). Besides, the GI50 in [19] and in experiment [20] was > 100 µM (inactive) throughout.

Regarding `CC(=O)NC1=C(NCc2ccc(Cl)cc2)C(=O)c2ccccc2C1=O`, the GI50 in [1] was 1.84 µM (inactive); in [3], 6.76 µM (inactive); in [4], 7.62 µM (inactive); in [5], 3.12 µM (inactive); in experiment [6], 5.57 µM; in experiment [7] it was 12.5 µM (inactive). Also, the GI50 in [8] is 11.3 µM (inactive); in experiment [9], 8.17 µM (inactive); in experiment [12], 9.59 µM (inactive); in [13] it was 10.8 µM (inactive); in experiment [14] it was 0.986 µM (active); in experiment [15] it was 7.45 µM (inactive). Also, the GI50 in experiment [16] is 13.3 µM (inactive); in [17], 5.5 µM (inactive); in [18], 5.62 µM (inactive); in experiment [19] it was 5.46 µM (inactive); in [20], 13.9 µM (inactive).
